Several values for one entry are separate records, joined by “and”; a condition that tells them apart may be missing. Equal values may be shown once.
Experiment: molar heat capacity at constant pressure
Conditions: 101.33 kPa, Crystal, relaxation calorimetry

O[C@H]1[C@H](O)[C@H](O)OC[C@H]1O [β-D-arabinopyranose]
Conditions	molar heat capacity at constant pressure
0.5 K	0.0007532 J/K/mol
1 K	0.00191 J/K/mol
1.5 K	0.0039 J/K/mol
1.93 K	0.00664 J/K/mol
2 K	0.007206 J/K/mol
2.03 K	0.00744 J/K/mol
2.14 K	0.00853 J/K/mol
2.26 K	0.00959 J/K/mol
2.38 K	0.01108 J/K/mol
2.5 K	0.01239 J/K/mol
2.51 K	0.01247 J/K/mol
2.64 K	0.01457 J/K/mol
2.78 K	0.01653 J/K/mol
2.94 K	0.01919 J/K/mol
3 K	0.02013 J/K/mol
3.1 K	0.02195 J/K/mol
3.27 K	0.02605 J/K/mol
3.43 K	0.02956 J/K/mol
3.5 K	0.03122 J/K/mol
3.63 K	0.03481 J/K/mol
3.81 K	0.03999 J/K/mol
4 K	0.04664 J/K/mol
4.03 K	0.04762 J/K/mol
4.23 K	0.05477 J/K/mol
4.47 K	0.06546 J/K/mol
4.5 K	0.06755 J/K/mol
4.7 K	0.07779 J/K/mol
4.96 K	0.09273 J/K/mol
5 K	0.09528 J/K/mol
5.22 K	0.109 J/K/mol
5.5 K	0.1311 J/K/mol and 0.1314 J/K/mol
5.79 K	0.157 J/K/mol
6 K	0.1776 J/K/mol
6.1 K	0.19 J/K/mol
6.42 K	0.2256 J/K/mol
6.5 K	0.2359 J/K/mol
6.77 K	0.2719 J/K/mol
7 K	0.308 J/K/mol
7.12 K	0.328 J/K/mol
7.5 K	0.396 J/K/mol
7.51 K	0.3961 J/K/mol
7.9 K	0.4794 J/K/mol
8 K	0.5015 J/K/mol
8.33 K	0.5808 J/K/mol
8.5 K	0.6256 J/K/mol
8.76 K	0.6949 J/K/mol
9 K	0.7669 J/K/mol
9.24 K	0.8445 J/K/mol
9.5 K	0.9266 J/K/mol
9.72 K	1.004 J/K/mol
10 K	1.105 J/K/mol
10.23 K	1.191 J/K/mol
10.77 K	1.405 J/K/mol
11 K	1.517 J/K/mol
11.32 K	1.667 J/K/mol
11.92 K	1.965 J/K/mol
12 K	2 J/K/mol
12.56 K	2.311 J/K/mol
13 K	2.549 J/K/mol
13.23 K	2.685 J/K/mol
13.94 K	3.128 J/K/mol
14 K	3.158 J/K/mol
14.68 K	3.61 J/K/mol
15 K	3.821 J/K/mol
15.46 K	4.149 J/K/mol
16 K	4.53 J/K/mol
16.31 K	4.747 J/K/mol
17 K	5.279 J/K/mol
17.15 K	5.4 J/K/mol
18 K	6.059 J/K/mol
18.08 K	6.128 J/K/mol
19 K	6.866 J/K/mol
19.05 K	6.89 J/K/mol
20 K	7.693 J/K/mol
20.08 K	7.769 J/K/mol
21.14 K	8.663 J/K/mol
22.3 K	9.532 J/K/mol
23.47 K	10.62 J/K/mol
24.74 K	11.68 J/K/mol
25 K	11.98 J/K/mol
26.04 K	12.89 J/K/mol
27.46 K	14.03 J/K/mol
28.89 K	15.45 J/K/mol
30 K	16.33 J/K/mol
30.43 K	16.8 J/K/mol
32.08 K	18.29 J/K/mol
33.81 K	19.73 J/K/mol
35 K	20.68 J/K/mol
35.6 K	21.31 J/K/mol
37.52 K	22.92 J/K/mol
39.51 K	24.55 J/K/mol
40 K	25.02 J/K/mol
41.64 K	26.31 J/K/mol
43.83 K	28.17 J/K/mol
45 K	29.23 J/K/mol
46.19 K	30 J/K/mol
48.63 K	31.87 J/K/mol
50 K	33.14 J/K/mol
51.26 K	34.52 J/K/mol
53.96 K	35.9 J/K/mol
55 K	36.8 J/K/mol
56.88 K	38.09 J/K/mol
59.89 K	40.36 J/K/mol
60 K	40.35 J/K/mol
63.13 K	42.59 J/K/mol
65 K	43.88 J/K/mol
66.46 K	45.03 J/K/mol
70 K	47.36 J/K/mol
70.07 K	47.59 J/K/mol
73.76 K	50.07 J/K/mol
75 K	50.8 J/K/mol
77.78 K	52.92 J/K/mol
80 K	54.2 J/K/mol
81.9 K	55.02 J/K/mol
85 K	57.56 J/K/mol
86.34 K	58.01 J/K/mol
90 K	60.88 J/K/mol
90.84 K	61.56 J/K/mol
95 K	64.18 J/K/mol
95.82 K	64.72 J/K/mol
100 K	67.44 J/K/mol
100.82 K	67.63 J/K/mol
105.87 K	71.22 J/K/mol
110 K	73.87 J/K/mol
110.95 K	74.61 J/K/mol
116.03 K	77.25 J/K/mol
120 K	80.2 J/K/mol
121.05 K	81.12 J/K/mol
126.07 K	84.2 J/K/mol
130 K	86.45 J/K/mol
131.11 K	87.48 J/K/mol
136.18 K	90.66 J/K/mol
140 K	92.63 J/K/mol
141.2 K	93.47 J/K/mol
146.26 K	96.4 J/K/mol
150 K	98.75 J/K/mol
151.33 K	99.46 J/K/mol
156.34 K	102.71 J/K/mol
160 K	104.83 J/K/mol
161.42 K	105.84 J/K/mol
166.44 K	108.82 J/K/mol
170 K	110.86 J/K/mol
171.52 K	111.71 J/K/mol
176.58 K	114.66 J/K/mol
180 K	116.86 J/K/mol
181.62 K	117.85 J/K/mol
186.66 K	121.01 J/K/mol
190 K	122.82 J/K/mol
191.69 K	123.97 J/K/mol
196.75 K	126.57 J/K/mol
200 K	128.77 J/K/mol
201.79 K	129.39 J/K/mol
206.8 K	132.11 J/K/mol
210 K	134.69 J/K/mol
211.88 K	135.86 J/K/mol
216.86 K	138.45 J/K/mol
220 K	140.59 J/K/mol
221.99 K	141.54 J/K/mol
226.98 K	144.9 J/K/mol
230 K	146.48 J/K/mol
232.03 K	147.66 J/K/mol
237.15 K	150.47 J/K/mol
240 K	152.35 J/K/mol
242.11 K	153.65 J/K/mol
247.24 K	156.9 J/K/mol
250 K	158.21 J/K/mol
252.28 K	159.78 J/K/mol
257.34 K	162.75 J/K/mol
260 K	164.06 J/K/mol
262.36 K	165.45 J/K/mol
267.38 K	168.46 J/K/mol
270 K	169.9 J/K/mol
272.39 K	171.4 J/K/mol
273.15 K	171.74 J/K/mol
277.53 K	174.86 J/K/mol
280 K	175.73 J/K/mol
282.55 K	177.62 J/K/mol
287.61 K	180.21 J/K/mol
290 K	181.55 J/K/mol
292.62 K	182.92 J/K/mol
297.64 K	185.3 J/K/mol
298.15 K	186.29 J/K/mol
300 K	187.36 J/K/mol
302.65 K	188.73 J/K/mol
